In the assay the target is CNS nicotinic receptors. The assay is described as follows: Determination of binding to relevant receptor sites. The following applies: free base used to prepare the salts. On the procedure: Receptor binding constants provide a measure of the ability of the compound to bind to half of the relevant receptor sites of certain brain cells of the patient. See, Cheng, et al., Biochem. Pharmacol. 22:3099 (1973). The (2S)-(4E)-N-methyl-5-[3-(5-isopropoxypyridin)yl]-4-penten-2-amine compound used to prepare the salts has extremely high affinity for the relevant receptors, with a binding affinity in the low nM range.
Binding of the compounds to relevant receptor sites was determined in accordance with the techniques described in U.S. Pat. No. 6,953,855 to Mazurov et al Inhibition constants (Ki values), reported in nM, were calculated from the IC50 values using the method of Cheng et al., Biochem, Pharmacol. 22:3099 (1973).

Turning to `CN[C@@H](C)C/C=C/c1cncc(OC(C)C)c1` [(2S)-(4E)-N-methyl-5-[3-(5-isopropoxypyridin)yl]-4-penten-2-amine], the “binding affinity (receptor binding constant, Ki)” value was “low nM range”.

For the origin of these results see US8017785B2, “Salt forms of (2S)-(4E)-N-methyl-5-[3-(5-isopropoxypyridin)y1]-4-penten 2-amine” (AstraZeneca AB, priority 2006, dated 2011).
